Source: patent publication USRE31181E, “Means and method for improving natural defenses against caries” (priority 1980, dated 1983)
Where a SMILES comes first, the peptide text is derived from it.

System: oral bacteria
Test: pH of glucose solution incubated with oral bacteria (salivary sediment) and test substance
Format: cell-based
Conditions: for pH rising to (pH rise after the drop) / pH drop to (lowest pH reached): salivary sediment 16.7% (v/v), peptide 3.3 mM; for pH rising to (pH rise after the drop) / pH drop to (lowest pH reached) / pH: glucose 2.8 mM; for pH rising to (pH rise after the drop): measured through the fourth hour; for pH drop to (lowest pH reached): pH starts slightly above 7; for pH: substance 3.3 mM final, 37° C.
Protocol: Experiments were performed in vitro using supernatant saliva. The saliva was obtained from random donors whose salivary secretions were paraffin block stimulated. The saliva donations were pooled before and after sediment removal.
Four sets of three 10×75 mm test tubes were provided with 0.2 ml of 8.4 mM (millimolar) of aqueous glucose solution. Set I was provided with 0.2 ml of pooled supernatant saliva. Set II was provided with 0.2 ml of 9.9 mM of the peptide glycine-glycine-arginine. Set III was provided with 0.2 ml of 9.9 mM arginine. Set IV was provided with 0.2 ml of distilled water. Sequentially 0.2 ml of a 50:50 aqueous suspension of oral bacteria was added to each test tube. The concentration of the peptide in the combined composition was 3.3 mM. The prepared test tubes were kept at 37° C. in a water bath. pH readings were taken at 0 time when the bacteria were added and at 15, 30, 45, 60, 90, 120, 180 and 240 minutes.
The tests were carried out under the same conditions as Sets I-IV. The salivary sediment was present in an amount of 16.7% (v/v), glucose 2.8 mM and the peptide 3.3 mM in the final composition.
Duplicate runs without peptide were run parallel to the others as a double check. […] Measurement continues through the fourth hour.

[1] = time 0 minutes (bacteria added)

**Q.** Which results are given for N=C(N)NCCC[C@H](N)C(=O)O.NCC(=O)O.NCC(=O)O [Gly--Gly--Arg, glycine-glycine-arginine]?
**A.** pH rising to (pH rise after the drop): 7.5; pH drop to (lowest pH reached): 5.5; pH [1]: 7.4; pH (time 15 minutes): 6.8; pH (time 30 minutes): 6.6; pH (time 45 minutes): 6.4; pH (time 60 minutes): 6.6; pH (time 90 minutes): 6.6; pH (time 120 minutes): 6.7; pH (time 180 minutes): 7.2; pH (time 240 minutes): 7.6

**Q.** For N=C(N)NCCC[C@H](NC(=O)[C@H](CCCCN)NC(=O)CNC(=O)CN)C(=O)O [Gly--Gly--Lys--Arg, H-glycine-glycine-lysine-arginine-OH] (H-GGKR-OH), which “pH rising to (pH rise after the drop)” value is on record?
**A.** Its value is 8.4.

**Q.** And the “pH drop to (lowest pH reached)” value?
**A.** The value was 6.4.

**Q.** What about the “effectiveness as pH rise factor” value (synthesized peptide) of the same compound?
**A.** The value was “proven effective”.

**Q.** Which pH [1] does the source give for N=C(N)NCCC[C@H](N)C(=O)O [Set III, arginine, reference compound] here?
**A.** Its pH is 7.3.

**Q.** What about the pH (time 15 minutes) of the same compound?
**A.** Its pH is 5.8.

**Q.** And the pH (time 30 minutes)?
**A.** Its pH is 5.4.

**Q.** And the pH (time 45 minutes)?
**A.** Its pH is 5.2.

**Q.** What about the pH (time 60 minutes) of the same compound?
**A.** The pH was 4.9.

**Q.** And the pH (time 90 minutes)?
**A.** The pH was 5.0.

**Q.** What about the pH (time 120 minutes) of the same compound?
**A.** The pH was 5.0.

**Q.** And the pH (time 180 minutes)?
**A.** Its pH is 5.3.

**Q.** What about the pH (time 240 minutes) of the same compound?
**A.** Its pH is 5.8.
